We go through two compounds from patent US20210290598A1, “MEDICAMENT USEFUL FOR CARDIOVASCULAR DISEASE” (NATIONAL UNIVERSITY CORPORATION OKAYAMA UNIVERSITY, priority 2018, published 2021).

Holding throughout (format): in vivo, rat
The test system of assay [1] is Dahl salt-sensitive rats. The assay can be described thus: Weight of isolated hearts of Dahl salt-sensitive rats on high-salt high-fat diet. Particulars: for heart weight: 12 weeks after start, mean±standard deviation, pemafibrate 0.5 mg/kg/day, pitavastatin 0.3 mg/kg/day, salt-containing HFD, control 1.74±0.1; for change in heart weight compared with control group: 12 weeks, analysis of variance/Bonferroni. As for the experimental part: (§1) Drug efficacy was evaluated on Dahl salt-sensitive rats (Dahl-Iwai S, 7 weeks old, Japan SLC, Inc.) fed on a 8% salt-containing HFD (High Fat Diet: 29.4% fat content, CLEA Japan, Inc.) (4 groups in total: (1) control group, (2) pemafibrate (0.5 mg/kg/day) single-agent administration group, (3) pitavastatin (0.3 mg/kg/day) single-agent administration group, and (4) pemafibrate (0.5 mg/kg/day)+pitavastatin (0.3 mg/kg/day) combined administration group, with 10 animals for each group). Twelve weeks after the start of administration, the animals were euthanized after measuring their blood pressure, and the weight of the isolated hearts and the endothelial function of the isolated thoracic aortas were measured with a Magnus apparatus. The measurement with the Magnus apparatus was performed according to the standard method. That is, a ring preparation of the isolated thoracic aorta was prepared, suspended in a Magnus tube in Krebs-Henseleit solution, loaded with a tension of 1 g, and constricted with 0.3 μM phenylephrine. Then, acetylcholine (10^−9 to 10^−5 M) was added cumulatively, and the relaxation response was measured. Finally, […] was obtained with 100 μM papaverine, and the relaxation rate was evaluated. When measuring with the Magnus apparatus, the blood vessels of normal rats were also evaluated in addition to the four groups, and were used as a control group. In addition, the expression level of phosphorylated endothelial nitric oxide synthase (phospho-eNOS) was evaluated by Western blotting according to the standard method, using the isolated aortas.

Assay [2] deals with phosphorylated endothelial nitric oxide synthase (phospho-eNOS). In words: Expression level of phospho-eNOS in isolated aortas by Western blotting. As to conditions: 12 weeks dosing. As for the experimental part:
as §1, with “That is, a ring preparation of the isolated thoracic aorta was prepared, suspended in a Magnus tube in Krebs-Henseleit solution, loaded with a tension of 1 g, and constricted with 0.3 μM phenylephrine.” left out
(In general: Immunoblotting shows a protein as a band on a membrane.)

Assay [3] deals with isolated thoracic aorta of Dahl salt-sensitive rats. In words: Endothelial function of isolated thoracic aorta, Magnus apparatus, acetylcholine relaxation response. As to conditions: 12 weeks dosing; aorta ring constricted with 0.3 μM phenylephrine, cumulative acetylcholine; mixed effect model, Bonferroni. The protocol: as §1, with “That is, a ring preparation of the isolated thoracic aorta was prepared, suspended in a Magnus tube in Krebs-Henseleit solution, loaded with a tension of 1 g, and constricted with 0.3 μM phenylephrine.” left out

Assay [4] deals with Dahl salt-sensitive rats. The assay can be described thus: Blood pressure in Dahl salt-sensitive rats on high-salt high-fat diet. As to conditions: for mean blood pressure: 12 weeks after start, mean±standard deviation, pemafibrate 0.5 mg/kg/day, pitavastatin 0.3 mg/kg/day, salt-containing HFD, control 193.6±6.6; for change in blood pressure compared with control group: 12 weeks, analysis of variance/Bonferroni. The protocol:
as §1

For the compound `CC[C@@H](Oc1cccc(CN(CCCOc2ccc(OC)cc2)c2nc3ccccc3o2)c1)C(=O)O` [pemafibrate, (2R)-2-[3-({1,3-benzoxazol-2-yl[3-(4-methoxyphenoxy)propyl]amino}methyl)phenoxy]butanoic acid], in assay [1], the heart weight is 1.48 ± 0.1 g and the “change in heart weight compared with control group” value is given as “significantly lower than that of the control”. Also, the “expression level of phospho-eNOS compared to control group” value in assay [2] is “tendency to increase”. In assay [3], the “vasodilatory responsiveness as a whole compared with control group” value is listed as “showed a trend toward improvement in vasodilatory responsiveness”. Also, in assay [4], the mean blood pressure is reported as 192.6±8.3 mmHg and the “change in blood pressure compared with control group” value is reported as “no change was observed”.
On to `O=C(O)C[C@H](O)C[C@H](O)/C=C/c1c(C2CC2)nc2ccccc2c1-c1ccc(F)cc1` [pitavastatin], for which, in assay [1], the heart weight is 1.76 ± 0.2 g and the “change in heart weight compared with control group” value is reported as “no change compared to the control”. For the same compound, the “expression level of phospho-eNOS compared to control group” value in assay [2] is recorded as “tendency to increase”. Moreover, the “vasodilatory responsiveness as a whole compared with control group” value in assay [3] is listed as “showed a trend toward improvement in vasodilatory responsiveness”. In assay [4], the mean blood pressure is reported as 196.9±8.4 mmHg and the “change in blood pressure compared with control group” value is on record as “no change was observed”.
